# Numbering of substitutions follows the chain as printed. Where two headings read alike, the source gives them in different places.
# Columns and labels:
# Assay type in all cases: binding
# [1] = target: MLK3 (Homo sapiens, UniProt Q16584); assay: KINOMEscan: MLK3; conditions: 1000 nM, read-out: Percent Control
# [2] = target: ABL1 (Homo sapiens, UniProt P00519, E255K); assay: KINOMEscan: ABL1; conditions: ABL1(E255K)-phosphorylated, read-out: Percent Control
# Description: (§1) The structure and synthesis of VIP152 were recently described by Lücking et al.. (Fig. 1A); however, the selectivity of the molecule in cellular systems has yet to be explored. […] We also performed this experiment at 1000 nM, where CDK9 was inhibited at 99%. […] We found a strong concordance between our data and those of Lücking when comparing the most inhibited kinases. Potential off-target effects of VIP152 were next tested in vitro at a concentration of 10 µM for off-target activity against a broad range of receptors, transporters, ion channels, and enzymes (n = 138) using the Eurofins Diversity Panel.
# (§2) Kinomescan Kinase Profiling Assay
# (§3) Kinomescan Assay was performed at DiscoverRX and described in Fabian, et al. 2005, Nat.
# (§4) Biotechnol. In brief, kinases were produced and subsequently tagged with DNA for qPCR detection.
# (§5) Streptavidin-coated magnetic beads were bound to biotinylated kinase ligands to serve as a solid support.
# (§6) VIP152 was dissolved in DMSO and tested across a 10 serial threefold dilution set and compared to a test compound and a DMSO control. Kinases which were inhibited by VIP152 would not be bound to the solid-support resulting in decreased substrate for the qPCR reaction. Kinome map was produced via TreeSpot Analysis from DiscoverRX. […]
# [3] = target: T1, ABL1 (Homo sapiens, UniProt P00519, F317L); assay: KINOMEscan: ABL1; conditions: read-out: Percent Control; for remaining binding at 0.1 µM: 100 nM; for remaining binding at 1 µM: 1000 nM
# T1 sequence (P00519 229-512 F317L): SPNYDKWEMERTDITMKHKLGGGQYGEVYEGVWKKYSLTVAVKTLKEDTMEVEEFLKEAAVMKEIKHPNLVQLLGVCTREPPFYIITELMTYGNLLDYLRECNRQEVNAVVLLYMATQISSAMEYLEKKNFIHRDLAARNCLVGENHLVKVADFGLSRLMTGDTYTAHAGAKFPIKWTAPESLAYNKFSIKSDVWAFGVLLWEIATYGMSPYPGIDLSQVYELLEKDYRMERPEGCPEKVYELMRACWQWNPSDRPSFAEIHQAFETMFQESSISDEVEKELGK
# Description: as §1, §2, §3, §4, §5, §6
# [4] = target: T2, ABL1 (Homo sapiens, UniProt P00519, T315I); assay: KINOMEscan: ABL1; conditions: read-out: Percent Control; for remaining binding at 0.1 µM: 100 nM; for remaining binding at 1 µM: 1000 nM
# T2 sequence (P00519 229-512 T315I): T1 sequence (P00519 229-512 F317L) with T87I, L89F
# Description: as §1, §2, §3, §4, §5, §6
# [5] = target: YANK3 (Homo sapiens, UniProt Q86UX6); assay: KINOMEscan: YANK3; conditions: 100 nM, read-out: Percent Control
# [6] = target: FLT3(D835V) (Homo sapiens, UniProt P36888, D835V); assay: KINOMEscan: FLT3(D835V); conditions: 1000 nM, read-out: Percent Control
# [7] = target: TEC (Homo sapiens, UniProt P42680); assay: KINOMEscan: TEC; conditions: 100 nM, read-out: Percent Control
# [8] = target: YANK2 (Homo sapiens, UniProt Q9NY57); assay: KINOMEscan: YANK2; conditions: 100 nM, read-out: Percent Control
# [9] = target: SLK (Homo sapiens, UniProt Q9H2G2); assay: KINOMEscan: SLK; conditions: 100 nM, read-out: Percent Control
# [10] = target: EPHA5 (Homo sapiens, UniProt P54756); assay: KINOMEscan: EPHA5; conditions: 1000 nM, read-out: Percent Control
# [11] = target: CDC2L2 (Homo sapiens, UniProt Q9UQ88); assay: KINOMEscan: CDC2L2; conditions: 1000 nM, read-out: Percent Control
# [12] = target: ROCK2 (Homo sapiens, UniProt O75116); assay: KINOMEscan: ROCK2; conditions: 100 nM, read-out: Percent Control
# [13] = target: MARK3 (Homo sapiens, UniProt P27448); assay: KINOMEscan: MARK3; conditions: 1000 nM, read-out: Percent Control
# Sequence of MARK3 (P27448 whole entry): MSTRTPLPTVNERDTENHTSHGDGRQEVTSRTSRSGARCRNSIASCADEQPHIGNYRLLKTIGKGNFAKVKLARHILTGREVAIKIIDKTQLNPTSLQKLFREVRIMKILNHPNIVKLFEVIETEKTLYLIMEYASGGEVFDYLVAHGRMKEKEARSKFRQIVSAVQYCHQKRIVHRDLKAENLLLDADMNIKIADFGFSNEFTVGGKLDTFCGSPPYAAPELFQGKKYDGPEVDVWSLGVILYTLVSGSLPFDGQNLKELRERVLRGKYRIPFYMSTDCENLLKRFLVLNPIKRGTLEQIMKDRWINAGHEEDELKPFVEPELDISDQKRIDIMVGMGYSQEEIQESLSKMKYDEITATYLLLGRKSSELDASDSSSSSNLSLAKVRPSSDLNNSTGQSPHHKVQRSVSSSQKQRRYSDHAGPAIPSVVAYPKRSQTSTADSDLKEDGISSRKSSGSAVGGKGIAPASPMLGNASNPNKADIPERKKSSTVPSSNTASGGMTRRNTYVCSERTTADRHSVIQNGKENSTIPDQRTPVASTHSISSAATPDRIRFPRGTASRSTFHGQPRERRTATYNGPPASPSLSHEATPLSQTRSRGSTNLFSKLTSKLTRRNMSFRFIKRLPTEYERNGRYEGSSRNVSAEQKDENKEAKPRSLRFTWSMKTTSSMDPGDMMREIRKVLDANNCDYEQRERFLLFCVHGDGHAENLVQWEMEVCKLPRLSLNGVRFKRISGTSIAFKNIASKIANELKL
# Sequence of EPHA5 (P54756 25-1037): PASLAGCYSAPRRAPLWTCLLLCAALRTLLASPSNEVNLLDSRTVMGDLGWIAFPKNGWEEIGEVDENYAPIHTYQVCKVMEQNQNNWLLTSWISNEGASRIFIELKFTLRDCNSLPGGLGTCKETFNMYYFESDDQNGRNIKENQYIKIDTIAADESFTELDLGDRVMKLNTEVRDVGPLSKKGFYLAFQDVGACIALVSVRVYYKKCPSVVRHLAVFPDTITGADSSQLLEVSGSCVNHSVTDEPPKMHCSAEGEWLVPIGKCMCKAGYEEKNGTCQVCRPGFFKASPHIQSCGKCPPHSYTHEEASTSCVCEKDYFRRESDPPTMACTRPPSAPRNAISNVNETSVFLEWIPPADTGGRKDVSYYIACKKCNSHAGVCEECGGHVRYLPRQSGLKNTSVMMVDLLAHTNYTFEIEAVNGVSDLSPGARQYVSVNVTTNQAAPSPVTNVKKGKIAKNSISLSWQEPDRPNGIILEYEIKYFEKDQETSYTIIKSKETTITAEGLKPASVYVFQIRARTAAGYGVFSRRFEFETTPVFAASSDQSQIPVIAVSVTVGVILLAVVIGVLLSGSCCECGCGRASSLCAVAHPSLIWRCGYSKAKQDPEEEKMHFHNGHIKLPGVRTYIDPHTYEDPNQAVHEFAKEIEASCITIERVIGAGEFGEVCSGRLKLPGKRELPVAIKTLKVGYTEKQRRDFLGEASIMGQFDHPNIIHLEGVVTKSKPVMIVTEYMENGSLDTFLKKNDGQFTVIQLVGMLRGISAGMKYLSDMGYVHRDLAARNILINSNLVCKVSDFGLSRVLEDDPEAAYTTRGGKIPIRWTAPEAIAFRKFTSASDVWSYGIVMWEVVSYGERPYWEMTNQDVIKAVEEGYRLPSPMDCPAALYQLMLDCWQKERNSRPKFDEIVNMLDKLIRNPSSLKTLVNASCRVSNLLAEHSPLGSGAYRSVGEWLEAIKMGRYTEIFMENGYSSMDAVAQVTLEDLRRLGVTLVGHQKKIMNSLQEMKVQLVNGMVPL
# Sequence of YANK2 (Q9NY57 whole entry): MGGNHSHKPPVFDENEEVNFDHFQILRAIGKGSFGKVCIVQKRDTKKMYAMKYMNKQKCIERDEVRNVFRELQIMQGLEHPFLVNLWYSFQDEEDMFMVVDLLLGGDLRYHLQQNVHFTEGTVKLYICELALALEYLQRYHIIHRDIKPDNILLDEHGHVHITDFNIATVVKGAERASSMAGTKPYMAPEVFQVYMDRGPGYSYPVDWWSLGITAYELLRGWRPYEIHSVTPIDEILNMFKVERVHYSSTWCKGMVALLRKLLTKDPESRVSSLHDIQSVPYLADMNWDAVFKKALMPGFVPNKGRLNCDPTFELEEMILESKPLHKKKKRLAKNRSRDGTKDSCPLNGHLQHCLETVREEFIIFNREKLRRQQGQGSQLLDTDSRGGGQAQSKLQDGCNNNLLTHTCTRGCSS
# Sequence of TEC (P42680 whole entry): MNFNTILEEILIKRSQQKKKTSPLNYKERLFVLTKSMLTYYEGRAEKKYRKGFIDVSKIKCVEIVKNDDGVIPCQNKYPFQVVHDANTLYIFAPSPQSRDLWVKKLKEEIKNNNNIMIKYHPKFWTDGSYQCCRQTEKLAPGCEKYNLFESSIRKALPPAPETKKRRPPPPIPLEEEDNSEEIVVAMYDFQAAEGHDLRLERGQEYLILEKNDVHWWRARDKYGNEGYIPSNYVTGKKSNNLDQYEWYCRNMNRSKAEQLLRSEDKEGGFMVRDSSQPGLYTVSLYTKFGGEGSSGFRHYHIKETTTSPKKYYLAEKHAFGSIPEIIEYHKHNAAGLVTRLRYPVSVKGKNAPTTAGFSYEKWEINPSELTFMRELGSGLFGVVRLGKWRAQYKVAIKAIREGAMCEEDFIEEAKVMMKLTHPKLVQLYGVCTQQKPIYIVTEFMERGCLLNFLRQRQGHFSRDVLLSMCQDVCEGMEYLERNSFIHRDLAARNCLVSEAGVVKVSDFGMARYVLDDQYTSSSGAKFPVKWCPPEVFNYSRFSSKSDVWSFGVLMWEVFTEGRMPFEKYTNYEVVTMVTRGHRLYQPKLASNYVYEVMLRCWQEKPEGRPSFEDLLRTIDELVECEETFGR
# Sequence of SLK (Q9H2G2 whole entry): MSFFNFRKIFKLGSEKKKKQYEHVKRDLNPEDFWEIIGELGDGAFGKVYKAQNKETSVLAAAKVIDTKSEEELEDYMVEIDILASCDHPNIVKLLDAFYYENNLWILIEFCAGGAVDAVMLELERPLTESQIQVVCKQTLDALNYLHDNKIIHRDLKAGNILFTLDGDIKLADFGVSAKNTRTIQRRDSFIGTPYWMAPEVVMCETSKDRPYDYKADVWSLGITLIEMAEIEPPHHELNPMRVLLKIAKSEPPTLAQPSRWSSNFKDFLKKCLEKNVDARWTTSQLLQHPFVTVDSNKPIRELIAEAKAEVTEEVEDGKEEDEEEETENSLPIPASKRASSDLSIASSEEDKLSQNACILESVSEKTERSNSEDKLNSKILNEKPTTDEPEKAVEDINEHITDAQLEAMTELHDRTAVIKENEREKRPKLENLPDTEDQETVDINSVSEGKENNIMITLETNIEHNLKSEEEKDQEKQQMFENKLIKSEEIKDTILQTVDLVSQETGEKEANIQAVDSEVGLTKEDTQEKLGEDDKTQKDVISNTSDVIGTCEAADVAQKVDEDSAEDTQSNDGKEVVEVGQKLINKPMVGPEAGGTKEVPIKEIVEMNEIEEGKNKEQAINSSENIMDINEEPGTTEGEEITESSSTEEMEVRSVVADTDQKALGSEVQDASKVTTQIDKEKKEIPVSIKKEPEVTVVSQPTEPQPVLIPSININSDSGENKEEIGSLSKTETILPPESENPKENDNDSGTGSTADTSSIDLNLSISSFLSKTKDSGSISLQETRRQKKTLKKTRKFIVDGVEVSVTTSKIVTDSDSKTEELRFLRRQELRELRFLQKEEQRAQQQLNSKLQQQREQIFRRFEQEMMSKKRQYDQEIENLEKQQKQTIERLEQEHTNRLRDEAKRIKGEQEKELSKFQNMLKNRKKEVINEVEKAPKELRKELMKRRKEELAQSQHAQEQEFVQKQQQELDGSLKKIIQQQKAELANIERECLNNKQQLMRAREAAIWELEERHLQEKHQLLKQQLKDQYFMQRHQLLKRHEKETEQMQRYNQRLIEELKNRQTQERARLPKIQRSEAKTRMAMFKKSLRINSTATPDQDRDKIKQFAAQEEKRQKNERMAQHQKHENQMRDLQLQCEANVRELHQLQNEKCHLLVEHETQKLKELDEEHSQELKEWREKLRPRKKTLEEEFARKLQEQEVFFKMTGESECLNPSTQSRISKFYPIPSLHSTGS
# Sequence of CDC2L2 (Q9UQ88 whole entry): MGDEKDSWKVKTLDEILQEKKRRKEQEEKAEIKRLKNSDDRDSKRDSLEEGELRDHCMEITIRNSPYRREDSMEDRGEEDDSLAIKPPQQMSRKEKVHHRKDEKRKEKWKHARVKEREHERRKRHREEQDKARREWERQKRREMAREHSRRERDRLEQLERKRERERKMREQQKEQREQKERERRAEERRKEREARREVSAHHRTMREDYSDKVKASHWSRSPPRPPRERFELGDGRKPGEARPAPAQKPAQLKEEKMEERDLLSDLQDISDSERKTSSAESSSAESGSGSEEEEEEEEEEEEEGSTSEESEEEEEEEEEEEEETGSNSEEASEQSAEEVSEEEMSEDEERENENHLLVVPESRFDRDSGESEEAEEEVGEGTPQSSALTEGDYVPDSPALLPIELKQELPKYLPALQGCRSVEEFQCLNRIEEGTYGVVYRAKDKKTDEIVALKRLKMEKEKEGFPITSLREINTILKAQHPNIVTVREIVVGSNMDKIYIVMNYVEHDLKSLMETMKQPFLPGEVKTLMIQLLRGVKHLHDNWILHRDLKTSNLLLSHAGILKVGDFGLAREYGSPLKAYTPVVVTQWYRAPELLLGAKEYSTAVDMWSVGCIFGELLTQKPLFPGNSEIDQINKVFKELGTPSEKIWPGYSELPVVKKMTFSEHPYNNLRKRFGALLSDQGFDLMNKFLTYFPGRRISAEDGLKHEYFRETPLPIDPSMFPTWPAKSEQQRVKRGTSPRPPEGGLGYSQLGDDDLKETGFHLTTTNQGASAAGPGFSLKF
compound,measurement,setting,value
COc1cc(F)ccc1-c1cc(Nc2cc(CS(C)(=N)=O)ccn2)ncc1F (centres unmarked) [VIP152],remaining binding at 1 µM,[1],87%
same,remaining binding at 0.1 µM,[2]; 100 nM,83%
same,remaining binding at 1 µM,[2]; 1000 nM,48%
same,remaining binding at 0.1 µM,[3]; ABL1(F317L)-nonphosphorylated,100%
same,remaining binding at 1 µM,[3]; ABL1(F317L)-nonphosphorylated,52%
same,remaining binding at 0.1 µM,[3]; ABL1(F317L)-phosphorylated,95%
same,remaining binding at 1 µM,[3]; ABL1(F317L)-phosphorylated,56%
same,remaining binding at 0.1 µM,[4]; ABL1(T315I)-nonphosphorylated,96%
same,remaining binding at 1 µM,[4]; ABL1(T315I)-nonphosphorylated,3.2%
same,remaining binding at 0.1 µM,[4]; ABL1(T315I)-phosphorylated,95%
same,remaining binding at 1 µM,[4]; ABL1(T315I)-phosphorylated,53%
same,remaining binding at 0.1 µM,[5],99%
same,remaining binding at 1 µM,[6],15%
same,remaining binding at 0.1 µM,[7],100%
same,remaining binding at 0.1 µM,[8],71%
same,remaining binding at 0.1 µM,[9],91%
same,remaining binding at 1 µM,[10],88%
same,remaining binding at 1 µM,[11],78%
same,remaining binding at 0.1 µM,[12],100%
same,remaining binding at 1 µM,[13],100%

# — paper PMC9898036, “VIP152 is a selective CDK9 inhibitor with pre-clinical in vitro and in vivo efficacy in chronic lymphocytic leukemia” (Leukemia, 2022)
